ChEMBL document CHEMBL3507680, “University of Dundee, Gates Library screen for HepG2 cell viability”

Assay: Human HepG2 cell viability assay in 384 well format
Assay type: toxicity, cell-based
Set-up: dose 125 nL, time 70.5 hour; concentration not given beside the values
Conditions: HepG2 cells, read-out: Inhibition

Compound | cytotoxicity at 70.5 h
O=C(NCc1cccnc1)[C@@H]1CC[C@@H]2[C@@H](CCN2c2ncccn2)O1 | 15.1%
COc1ccc(-c2nc3c([nH]2)CCNC3C(=O)O)c2ccccc12 (stereo not given) | -7.46%
Cc1nc(NCC2CC2)nc2c1COCC21CCN(C)C1 (stereo not given) | -3.52%
CC(C)(C)NC(=O)CNc1ccc(Br)cn1 | 0.762%
c1cc(CN2CCSC3(CCCCC3)C2)no1 | -1.3%
COc1cc(CCC(=O)N2CCC(c3cc4ncccc4[nH]3)CC2)on1 | 22%
Cc1ccsc1-c1nccn1CCS(=O)(=O)N1CCCC1 | 8.18%
COc1ccc(CNC(=O)NCc2ccc(C)cc2)cn1 | -7.46%
Cn1c(CS(=O)(=O)Cc2cccc(Cl)c2)cc(=O)n(C)c1=O | -4.54%
CCc1cc(N2CCC(n3cc(C(=O)NCC(C)C)nn3)CC2)ncn1 | 0.723%
Cn1cc(NC(=O)N2CCC(c3ccccc3)CC2)ccc1=O | -3.71%
CCn1c(C2CCCN(Cc3ccc(OC)c(C)c3C)C2)nn(C)c1=O (stereo not given) | -5.07%
Cc1nc2c(c(=O)[nH]1)CCN(Cc1ccc3c(c1)CCCN3C)C2 | 0.602%
CN1N=C(C(=O)N2CCCC(n3ccnc3)C2)CCC1=O (stereo not given) | -7.88%
COc1cccc(C(=O)Nc2ccc(OCCC(N)=O)cc2)c1OC | -5.04%
CCN(C(=O)c1ccc2nncn2c1)C(C)Cc1ccc(OC)cc1 (stereo not given) | -5.25%
CCn1c(C)nnc1SCCNC(=O)c1sc(C(C)C)nc1C | -7.2%
Fc1cnc(N2CCOCC3(CCCNC3)C2)nc1 (stereo not given) | 12.2%
Cc1cccc(CO[C@@H]2CO[C@@]3(CCN(S(=O)(=O)N(C)C)C3)C2)n1 | -4.3%
CC(C)CCNC(=O)Cc1cnc(-n2cccc2)s1 | -21%
CC(C)N1CC[C@@H]2[C@H](COCC3CC3)CN(C)C(=O)[C@@H]2CC1 | 4.19%
O=C1COC2(CCN(Cc3ccncc3)CC2)CN1c1ccccc1 | 2.43%
CC(C)CN1C(=O)CO[C@@H]2CN(C(=O)N(C)C)C[C@H]21 | 2.11%
CC(C)C(C)NC(=O)Nc1ccc(CS(=O)(=O)C(C)C)cc1 (stereo not given) | -12.6%
CCc1nc(C)c(CN2CCCC(c3nn(C)c(=O)n3CC)C2)[nH]1 (stereo not given) | -6.96%
CCc1cc(C(=O)N2CCC3(CCCN(CC4CC4)C3=O)C2)cs1 (stereo not given) | 6.71%
CC1CN(C(=O)c2ccn(C)c(=O)c2)c2ccccc2NC1=O (stereo not given) | -2.71%

Compound | cytotoxicity at 70.5 h
Cc1ccc(CN2CC[C@H]3C[C@H](C(=O)N(C)C)O[C@H]3C2)cc1 | -17.2%
COc1ccccc1OCCNC1CCCN(Cc2noc(C)n2)C1 (stereo not given) | 31.2%
O=S(=O)(c1cccs1)N1CCCCC1c1ccn[nH]1 (stereo not given) | -2.26%
CC1CCCN(CCNC(=O)c2ccn(-c3ccc(F)cc3)n2)C1 (stereo not given) | -0.389%
O=C(c1ccnnc1)N1C[C@@H]2CN(c3ncccn3)C[C@@H]2C1 | 7.41%
CCOc1cccc2c1OCC(=O)N(c1ccc3c(c1)OCCO3)C2 | -6.5%
COc1ccc(NC(=O)Cn2nc(C)c(C)cc2=O)cc1 | 1.99%
CN(CCCc1cc(-c2ccc(F)cc2)n[nH]1)C(=O)CCn1cncn1 | 1.64%
Cc1ccccc1C(NC(=O)CCCS(C)(=O)=O)C(C)(C)C (stereo not given) | 14.3%
CN1CCN(C(=O)c2cc3occc3n2Cc2ccccc2F)CC1 | -10.6%
CS(=O)(=O)N1C[C@H]2CCC[C@@]2(COc2ccccn2)C1 | -16.1%
C=C(C)CN(CC)Cc1nc(CC)no1 | -8.43%
CN(Cc1n[nH]c2c1CCCC2)c1nc2c(c(=O)[nH]1)CCNCC2 | -4.95%
c1cncc(N2CCOC3(CCCN(c4nncs4)C3)C2)c1 (stereo not given) | -7.3%
O=C(c1ccc(=O)[nH]c1)N1CCC(Oc2cccc(C(F)(F)F)c2)CC1 | 3.69%
Cc1cc(CN2CCC(C(=O)O)(n3ccc(-c4ccco4)n3)CC2)on1 | -2.92%
CC(C)=CCN1CCOC(Cn2cccn2)C1 (stereo not given) | 1.11%
CC(=O)c1cccc(NC(=O)CCn2nc(-c3cccs3)oc2=O)c1 | -18.2%
NC(=O)C1CN(C(=O)Nc2ccccc2Oc2ccccc2Cl)CCO1 (stereo not given) | -6.93%
O=C(NCCNc1cc(N2CCCC2)cnn1)Nc1ccccc1F | -2.71%
CC(CNC(=O)c1cc(N2CCNC2=O)ccc1F)c1ccccc1 (stereo not given) | -6.76%
COc1cc(C(=O)NCC2CC2)nc2c(C)cc(F)cc12 | -4.75%
NC(=O)C1(c2cnccn2)CCCN1Cc1ccc(Cl)c(F)c1 (stereo not given) | -5.01%
COCc1c(C(=O)NC2CCCC2)nnn1-c1ccc(C)cc1 | 22.4%
CCCc1nc(C)cc(N2CCC3(CCC(=O)N(CCOC)C3)CC2)n1 | -9.62%
Cc1ccoc1C(=O)N1C[C@H]2CCC[C@@]2(COCc2ccncc2)C1 | 5.44%
O=C(C1CCC1)N1C[C@@H]2CCN(c3cccnc3)C[C@@H]2C1 | 30%

Compound | cytotoxicity at 70.5 h
Cc1ccc(C)c(OC2CCN(C(=O)c3ccc(O)nc3)CC2)c1 | 2.43%
Cc1nc(N(C)CCCc2nccn2C)c2c(C)nn(C)c2n1 | -6.47%
C=Cn1cc(CN2CCc3nc(-c4cccnc4)nc(O)c3C2)c(C)n1 | -3.49%
O=C(NCC1Cn2nnc(-c3cccc(F)c3)c2CO1)c1ccc[nH]1 (stereo not given) | 4.99%
CC(C)NC(=O)NC[C@H]1OC[C@@H](NCc2ccccc2O)[C@@H]1O | -2.12%
Cc1nnc([C@@H]2C[C@H]3CN(C4CCC4)C[C@H]3O2)[nH]1 | -0.989%
Cc1noc(NC(=O)c2ccc(F)cc2)n1 | -3.99%
CCOC1COC2(CCN(CC3CCOCC3)CC2)C1 (stereo not given) | 14.7%
CC(O)CN1CCN(C(=O)c2ccn(-c3cccc(Cl)c3)n2)CC1 (stereo not given) | 13.7%
O=C(Cc1ccc(F)c(F)c1)NC1COc2ccccc2C1=O (stereo not given) | -0.695%
Fc1ccc(-c2cnc(CN3CCn4c(nnc4C4CC4)C3)o2)cc1 | -9.29%
O=S(=O)(Cc1cc(-c2ccccc2)no1)CC1CCCO1 (stereo not given) | -8.25%
c1ccc(CN2CCCn3nnc(CNc4ncccn4)c3C2)nc1 | -87.8%
CC(C)C[C@H]1CN(c2nc3c(cc2C(N)=O)CCC3)CC[C@@]1(C)O | -7.33%
NC(=O)C1CCN(C(=O)NCCOc2ccc3c(c2)OCO3)C1 (stereo not given) | -8.31%
Cc1nn(C)c(Cl)c1C1CCCN1CC(=O)NCc1ccco1 (stereo not given) | -8.19%
Cc1nc(C)n(CC2CCCN2CC(=O)NC2CCOCC2)n1 (stereo not given) | 2.61%
Cc1cc(N2CCCCC2Cn2nc(C)cc2C)n2ncnc2n1 (stereo not given) | -4.18%
CNC(=O)C(C)(C)NC(=O)c1cc(OCC2CCC2)cc(C(=O)OC)c1 | -1.19%
CCCS(=O)(=O)N1CCc2c(COCC)cncc2C1 | -3.03%
Cc1csc2c(=O)n(CCN3CCNCC3)cnc12 | 11.9%
O=C(O)c1csc(S(=O)(=O)Nc2c(F)cccc2-n2cccn2)c1 | 4.64%
Cc1ccc(C(F)(F)F)cc1NC(=O)C1CCCN1 (stereo not given) | -8.7%
NS(=O)(=O)CCCNC(=O)C1(c2cccc(Cl)c2)CC1 | -22.9%
O=C(CCN1CCCC1)N1CC[C@@H](c2ccc3ccccc3c2)[C@H](O)C1 | -21%
COc1ccc(CN(C)C(=O)CSc2nnc(N)s2)c(OC)c1OC | -5.3%
